In experiment [1] the target is T1, native CFTR, genotype F508del/G551D (Homo sapiens, UniProt P13569, G551D).
T1 construct: For functional studies of native CFTR, we used primary cultures of human bronchial epithelial cells; host or cells: primary human bronchial epithelial cells, F508del/G551D, air-liquid interface cultures, studied at 35°C
Briefly: Ussing chamber CFTR-mediated short-circuit current (Isc) in F508del/G551D human bronchial epithelial cells. The experiment is classed as cell-based. The note with it: for EC50: F508del/G551D epithelia of hBE cells, Isc, 35°C, read-out: EC50 (μM) (95% CI); for Emax: HBE, read-out: Maximal effect (%) (95% CI). From the text: For functional studies of native CFTR, we used primary cultures of human bronchial epithelial cells of genotypes F508del/F508del and F508del/G551D. Passage 1 (P1) human bronchial epithelial cells from SH Randell (University of North Carolina [UNC] Cystic Fibrosis Center Tissue Procurement and Cell Culture Core) were differentiated at an air–liquid interface as described by Neuberger et al., ([2011]) with some modifications. The research conducted on human cells at UNC has been verified as compliant with Pfizer policies, including institutional review board or institutional ethics committee approval. Cells were thawed and expanded in BEGM™ Bronchial Epithelial Cell Growth Medium (cat. no. CC‐3170, Lonza, USA) supplemented with retinoic acid (10 nM) and banked at P2. For functional assays, P2 cells were expanded to P4, and 5 × 10^5 P4 human bronchial epithelial cells were seeded in growth medium on Snapwell filter inserts (cat. no. 3801, Corning, NY, USA). Cells were switched to differentiation medium the following day and cultured submerged for 3 days before the medium was removed from the apical membrane to establish an air–liquid interface. Thereafter, the basolateral medium was changed every 2–3 days and mucus washed from the apical membrane every 2–3 weeks and the day prior to use starting 21 days after initiating air–liquid interface culture.
After >30 days of air–liquid interface culture on Snapwell filter inserts, human bronchial epithelial cells formed well differentiated, electrically tight epithelia (Rt > 200 Ω cm^2). Prior to study, F508del/F508del and F508del/G551D human bronchial epithelial cell cultures were incubated at 37°C and 5% CO2.
Epithelia were mounted in Ussing chambers and data acquired and analysed as described above for Ussing chamber studies of FRT cells heterologously expressing CFTR with the following exceptions. Both the apical and basolateral membranes were bathed in solutions containing (mM): 137 NaCl, 4 KCl, 1.8 CaCl2, 1 MgCl2, 10 Na HEPES, and 10 glucose (pH 7.4 with NaOH). Epithelia of F508del/G551D human bronchial epithelial cells were studied at 35°C, whereas those of F508del/F508del human bronchial epithelial cells were assayed at 27°C to maintain the apical membrane expression of F508del‐CFTR. After cancelling voltage offsets, transepithelial voltage was clamped at 0 mV and short‐circuit current (Isc) recorded continuously. The protocol to record CFTR‐mediated Isc was the same as for ICl ^apical measurements except that amiloride (30 μM, apical solution) was added to inhibit the epithelial Na^+ channel before forskolin (10 μM, apical and basolateral solutions) addition.

The target in another experiment is T2, wild‐type CFTR (Homo sapiens, UniProt P13569).
T2 construct: expressed in transfected cells
Nature of the experiment: Single-channel recording in excised inside-out membrane patches, wild-type CFTR. The note with it: ATP 0.3 mM; for maximum Po (Po max) / EC50: PKA 75 nM, ~23°C; for EC50: read-out: EC50 for potentiation of Po. The experiment is classed as biochemical. The procedure:
For CFTR studies using automated electrophysiology and single-channel recording, we used baby hamster kidney (BHK) cells (RRID:CVCL_1915) and human embryonic kidney (HEK) 293 cells (RRID:CVCL_0045) stably expressing wild-type human CFTR and the CFTR variants F508del- and […] et al., [2002]; Xu et al., [2014]). […] HEK cells expressing CFTR variants were generated using the Flp-InTM system as described above for F508del- and G551D-CFTR-expressing FRT cells. They were cultured in Dulbecco's modified Eagle's medium (glucose, 1.5 g·L^-1; sodium pyruvate, 110 mg·L^-1) supplemented with 10% FBS (PAA Laboratories), GlutaMAXTM and hygromycin-B (150 μg·ml^-1; InvitrogenTM, Thermo Fisher Scientific) at 37°C in a humidified atmosphere with 5% CO2. Prior to study, F508del-CFTR expressed in HEK cells was trafficked to the plasma membrane by low temperature incubation (27°C for 24-72 h). The single-channel behaviour of human CFTR in excised membrane patches from different mammalian cell lines heterologously expressing CFTR is equivalent (wild-type CFTR, Chen et al., [2009]; F508del-CFTR, Bose et al., [2019]; and G551D-CFTR, J Liu, Y Wang, Z Cai, and DN Sheppard, unpublished observations). CFTR Cl^- channels were recorded in excised inside-out membrane patches using an Axopatch 200B patch-clamp amplifier and pCLAMP software (version 10.3) (RRID:SCR_011323) (both from Molecular Devices, San Jose, CA, USA) (Sheppard & Robinson, [1997]). […] Within 2 min after membrane patch excision, we added the catalytic subunit of protein kinase A (PKA; 75 nM) and ATP (1 mM) to the intracellular solution to activate CFTR Cl^- channels. To minimise channel rundown, we added PKA and millimolar concentrations of ATP to all intracellular solutions and clamped voltage at -50 mV. […] We reduced the ATP concentration when testing CFTR potentiators on wild-type CFTR to observe their effects more clearly. […] Instead, specific interventions with CFTR potentiators were compared with the pre-intervention control period made with the same concentration of ATP and PKA, but without test compounds. […] F508del-CFTR, n ≤ 4; G551D-CFTR, n ≤ 5). To determine channel number, we used the maximum number of simultaneous channel openings observed during an experiment (Cai et al., [2006]). To minimise errors, we used experimental conditions that robustly potentiate channel activity and verified that recordings were of sufficient length to ascertain the correct number of channels ([…] et al., [1994]). […] Despite our precautions, we cannot exclude the possibility of unobserved G551D-CFTR Cl^- channels in excised membrane patches causing Po values for G551D-CFTR to be […]. Therefore, Po values for G551D-CFTR are expressed as apparent Po (Po(app)) values. Single-channel currents were directly acquired to a computer hard disc after filtering at a corner frequency (f c) of 500 Hz with an eight-pole Bessel filter (model LHBF-48×; npi electronic GmbH, Tamm, Germany) and digitising at a sampling rate of 5 kHz using a Digidata 1440A interface (Molecular Devices) and pCLAMP software. […] The mean interburst interval (TIBI) was calculated using the equation (Cai et al., [2006]): (1) Po=Tb/TMBD+TIBI, where T b = (mean burst duration) × (open probability within a burst). Mean burst duration (T MBD) and open probability within a burst (Po[burst]) were determined directly from experimental data using pCLAMP software. […]

Molecules are shown by their SMILES.

Here are results for 2 molecules from PMC9304199, “A small molecule CFTR potentiator restores ATP‐dependent channel gating to the cystic fibrosis mutant G551D‐CFTR” (British Journal of Pharmacology, 2022).

T2 sequence (P13569 whole entry): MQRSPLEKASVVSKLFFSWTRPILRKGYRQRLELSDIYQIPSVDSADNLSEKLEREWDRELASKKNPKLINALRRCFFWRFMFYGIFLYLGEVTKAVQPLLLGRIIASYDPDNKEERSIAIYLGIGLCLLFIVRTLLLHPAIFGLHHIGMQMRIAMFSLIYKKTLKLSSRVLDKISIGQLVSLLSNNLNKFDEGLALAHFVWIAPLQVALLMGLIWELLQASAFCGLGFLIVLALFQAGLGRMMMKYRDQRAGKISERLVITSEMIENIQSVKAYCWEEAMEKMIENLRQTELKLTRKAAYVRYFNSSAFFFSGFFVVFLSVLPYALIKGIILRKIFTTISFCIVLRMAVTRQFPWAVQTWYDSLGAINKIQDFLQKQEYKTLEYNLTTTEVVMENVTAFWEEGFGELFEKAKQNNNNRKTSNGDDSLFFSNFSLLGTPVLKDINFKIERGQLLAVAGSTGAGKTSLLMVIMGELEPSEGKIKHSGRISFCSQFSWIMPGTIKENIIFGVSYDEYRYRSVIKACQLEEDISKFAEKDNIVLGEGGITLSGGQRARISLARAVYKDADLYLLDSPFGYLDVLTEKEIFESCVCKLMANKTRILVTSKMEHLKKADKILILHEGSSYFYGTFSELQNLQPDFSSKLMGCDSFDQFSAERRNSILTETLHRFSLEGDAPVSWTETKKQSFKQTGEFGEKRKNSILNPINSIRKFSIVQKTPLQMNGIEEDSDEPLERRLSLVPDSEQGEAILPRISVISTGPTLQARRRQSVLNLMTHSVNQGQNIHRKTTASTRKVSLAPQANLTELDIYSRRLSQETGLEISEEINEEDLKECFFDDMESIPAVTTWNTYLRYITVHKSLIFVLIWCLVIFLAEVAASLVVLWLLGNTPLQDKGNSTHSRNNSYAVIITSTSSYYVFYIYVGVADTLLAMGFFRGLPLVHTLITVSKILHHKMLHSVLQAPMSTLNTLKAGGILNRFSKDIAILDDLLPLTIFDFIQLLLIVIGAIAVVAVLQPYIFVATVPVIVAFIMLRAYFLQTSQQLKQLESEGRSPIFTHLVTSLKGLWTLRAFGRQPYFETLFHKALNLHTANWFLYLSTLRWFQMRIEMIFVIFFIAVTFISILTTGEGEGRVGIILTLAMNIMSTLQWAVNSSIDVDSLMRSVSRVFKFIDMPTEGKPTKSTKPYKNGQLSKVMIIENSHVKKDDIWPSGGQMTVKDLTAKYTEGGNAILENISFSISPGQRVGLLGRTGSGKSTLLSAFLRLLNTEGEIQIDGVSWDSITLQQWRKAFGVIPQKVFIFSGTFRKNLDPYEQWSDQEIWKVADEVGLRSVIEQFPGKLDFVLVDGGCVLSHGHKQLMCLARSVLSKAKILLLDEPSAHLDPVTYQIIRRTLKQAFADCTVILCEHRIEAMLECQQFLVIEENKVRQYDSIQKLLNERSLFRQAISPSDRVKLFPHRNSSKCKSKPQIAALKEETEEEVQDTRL
T1 sequence (P13569 whole entry F508del/G551D): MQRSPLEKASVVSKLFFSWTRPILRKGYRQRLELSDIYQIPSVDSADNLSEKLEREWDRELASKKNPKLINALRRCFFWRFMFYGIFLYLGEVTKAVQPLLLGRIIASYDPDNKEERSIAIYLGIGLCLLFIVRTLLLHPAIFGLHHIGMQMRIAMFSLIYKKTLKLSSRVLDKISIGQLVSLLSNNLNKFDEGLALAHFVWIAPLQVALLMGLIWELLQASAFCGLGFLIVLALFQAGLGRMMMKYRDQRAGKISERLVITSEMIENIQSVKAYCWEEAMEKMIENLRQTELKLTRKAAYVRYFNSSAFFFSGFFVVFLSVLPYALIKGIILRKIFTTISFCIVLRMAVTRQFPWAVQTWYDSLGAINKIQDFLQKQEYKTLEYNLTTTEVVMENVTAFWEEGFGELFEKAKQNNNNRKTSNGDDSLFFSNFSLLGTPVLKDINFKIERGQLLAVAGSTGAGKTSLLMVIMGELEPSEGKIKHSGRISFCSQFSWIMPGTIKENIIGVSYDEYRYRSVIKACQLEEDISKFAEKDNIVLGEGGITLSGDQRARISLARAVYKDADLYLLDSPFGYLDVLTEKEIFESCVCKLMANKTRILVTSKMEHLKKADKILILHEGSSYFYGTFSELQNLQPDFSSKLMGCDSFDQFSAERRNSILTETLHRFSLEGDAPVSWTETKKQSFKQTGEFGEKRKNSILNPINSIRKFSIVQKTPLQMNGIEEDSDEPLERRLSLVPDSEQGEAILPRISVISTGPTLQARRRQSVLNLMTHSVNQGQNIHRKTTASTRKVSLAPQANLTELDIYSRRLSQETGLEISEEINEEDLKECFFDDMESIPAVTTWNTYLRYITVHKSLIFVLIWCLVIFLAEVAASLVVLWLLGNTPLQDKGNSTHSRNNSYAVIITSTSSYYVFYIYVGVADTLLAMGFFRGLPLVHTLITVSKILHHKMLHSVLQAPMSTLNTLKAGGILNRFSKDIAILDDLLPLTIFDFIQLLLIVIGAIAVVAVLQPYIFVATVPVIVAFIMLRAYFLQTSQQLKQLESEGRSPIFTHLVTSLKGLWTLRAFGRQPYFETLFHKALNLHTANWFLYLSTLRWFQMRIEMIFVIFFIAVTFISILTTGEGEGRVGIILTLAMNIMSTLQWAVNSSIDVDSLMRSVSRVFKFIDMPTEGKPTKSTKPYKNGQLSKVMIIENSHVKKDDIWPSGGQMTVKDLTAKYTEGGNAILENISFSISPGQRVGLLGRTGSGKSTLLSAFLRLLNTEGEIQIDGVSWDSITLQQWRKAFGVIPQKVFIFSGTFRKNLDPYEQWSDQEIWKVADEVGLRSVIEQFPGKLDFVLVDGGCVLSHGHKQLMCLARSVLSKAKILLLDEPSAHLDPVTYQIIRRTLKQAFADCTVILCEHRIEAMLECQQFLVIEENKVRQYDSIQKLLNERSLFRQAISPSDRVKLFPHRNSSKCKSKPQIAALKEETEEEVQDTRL

Regarding `Cc1ncccc1CNC(=O)c1ccc2c(c1)CC[C@H]1C[C@](O)(CCC(F)(F)F)CC[C@]21Cc1ccccc1` (racemic) [CP‐628006, rac‐(4bR,7R,8aS)‐4b‐benzyl‐7‐hydroxy‐N‐((2‐methylpyridin‐3‐yl)methyl)‐7‐(3,3,3‐trifluoropropyl)‐4b,5,6,7,8,8a,9,10‐octahydrophenanthrene‐2‐carboxamide], in experiment [1], the EC50 was 0.14 µM and the Emax amounted to 18%. Also, on wild‐type CFTR, the “maximum Po (Po max)” value came out at 0.77 and the EC50 is 24 nM.
`CC(C)(C)c1cc(C(C)(C)C)c(NC(=O)c2c[nH]c3ccccc3c2=O)cc1O` [ivacaftor, reference compound]: in experiment [1], the EC50 stood at 0.005 µM and the Emax came to 103%. On wild‐type CFTR, the “greater potency than CP‐628006” value is reported as 100 fold, the “maximum Po (Po max)” value amounted to 0.71 and the concentration for a half-maximal effect (EC50) stood at 0.21 nM.

By EC50 is commonly meant the concentration at which the effect is half-maximal.
